In patent US5871946A, “Method for determining activity of enzymes in metabolically active whole cells” (priority 1995, dated 1999):
“And” between values parts separate entries of the source, which are not always exact repeats. Equal values may be shown once.

What was measured:
[1] = test system: cells of normals and HIV + patients; experiment: Substrate panel in cells of normals and HIV+ patients, possible TB infection (Table 4); format: cell-based, human
Description: A panel of assay compounds are assembled consisting of Ala-aminopeptidase and Lys-aminopeptidase, Dipeptidyl peptidase IV (Ala-Ala)2 rhodamine 110 and Cathepsin D to indicate possible TB infection in AIDS related cases.
A panel of enzymatic substrates is performed consisting of Ala-aminopeptidase and Lys-aminopeptidase, Dipeptidyl peptidase IV (Ala-Ala)2 rhodamine 110 and Cathepsin D to indicate possible TB infection in AIDS related cases.

MONOCYTES = experiment: Disease to normal ratio of enzyme activity, monocytes (Table 5); format: cell-based, human
Text: (§1) A normal in house adult donor pool was drawn, recording sex and determining that no known disease state was present at the time of sample draw. Criteria for rejecting samples included patients under medication, patients with infection or inflammation of any type, colds and flu as well as any known medical illness such as cancer, heart ailment and high blood pressure. A donor list of 75 patients has been developed and a mean and 2 sd range established. A subgroup of "super normals" was developed from this list by examining the 75 patients to determine which group falls closest to the mean for all enzymes in all cell types tested. These patients were used as the "wellness index" or best group of "normalcy" patients. If a study required the use of children or newborns then this same format was used to develop a data base for these age groups.

amino peptidase = experiment: Aminopeptidase activity in acute lympholytic Ficoll prepared lymphocytes; format: cell-based; settings: FIG. 4B
Text: The cell's ability to fight off an invader lies within its genetics and therefore cell type. The "readiness" however of any genetically capable group of cells to defend is different. A measure of this "readiness" is manifest in the available proteolytic enzymes contained within vacuoles or on the surface of the cell. The assay compound hydrolysis rate increases with increased mass of enzymes giving a picture of immune competence both in number of cells and activity level. […] Images were generated using Universal Imaging.

LYMPHOCYTES = experiment: Disease to normal ratio of enzyme activity, lymphocytes (Table 5); format: cell-based, human
Text: as §1

[2] = Modulators of sensitivity of rhodamine 110 substrates; format: cell-based; settings: 1 mM
Text: Modulators are components used to […] the sensitivity of the enzyme for the leaving group. The modulators speed up or slow down the activity of an enzyme by changing the active site. […] Preferred modulators for particular enzymes are included in Table 1.

[3] = Effect of sodium chloride on dipeptide reagent; format: cell-based; settings: 7 mM, pH range 6.5 to 8.7
Text: Inhibitors and poisons (or toxins) are components that can be added to reduce the activity of non-targeted enzymes that provide competing reactions for the leaving group. Inhibitors are usually very selective for a particular enzyme. For example, EDTA only works with enzymes requiring Ca^+2, Mg^+2 and some other metals. […] Preferred inhibitors for particular enzymes are included in Table 1.

SMILES: NC(=O)CC[C@H](N)C(=O)N[C@@H](CO)C(=O)Nc1ccc2c(c1)Oc1cc(NC(=O)[C@H](CO)NC(=O)[C@@H](N)CCC(N)=O)ccc1C21OC(=O)c2ccccc21 (relative stereo) [GLN--SER*]
- MEAN DELTA FL ([1]; HIV + PATIENTS): 13.7 and 12.7
- MEAN DELTA FL ([1]; NORMALS): 11.9 and 6.1

SMILES: C[C@H](N)C(=O)NCC(=O)Nc1ccc2c(c1)Oc1cc(NC(=O)CNC(=O)[C@H](C)N)ccc1C21OC(=O)c2ccccc21 [ALA--GLY****]
- MEAN DELTA FL ([1]; HIV + PATIENTS): 39.9
- MEAN DELTA FL ([1]; HIV + PATIENTS, listed as ALA--GLY*): 29.7
- MEAN DELTA FL ([1]; NORMALS): 48.0
- MEAN DELTA FL ([1]; NORMALS, listed as ALA--GLY*): 31.6

SMILES: CC(C)C[C@H](N)C(=O)Nc1ccc2c(c1)Oc1cc(NC(=O)[C@@H](N)CC(C)C)ccc1C21OC(=O)c2ccccc21 [LEU, (Leu)2 Rho 110]
- Ratio of disease to normal (MONOCYTES; Dermatomyositis, monocytes): 1.35
- Ratio of disease to normal (MONOCYTES; Inflam. Bowel Dis., monocytes section): 1.13
- Ratio of disease to normal (MONOCYTES; JRA, monocytes): 1.44
- Ratio of disease to normal (MONOCYTES; Lupus, monocytes): 44.44
- enzymatic activity (amino peptidase): lost their enzymatic activity
- Ratio of disease to normal (LYMPHOCYTES; Dermatomyositis): 1.36
- Ratio of disease to normal (LYMPHOCYTES; Inflam. Bowel Dis.): 1.34
- Ratio of disease to normal (LYMPHOCYTES; Lupus): 1.93
- Ratio of disease to normal (LYMPHOCYTES; Rheumatic Fever): 1.05

SMILES: C[C@H](NC(=O)[C@@H](N)CCCCN)C(=O)Nc1ccc2c(c1)Oc1cc(NC(=O)[C@H](C)NC(=O)[C@@H](N)CCCCN)ccc1C21OC(=O)c2ccccc21 [LYS--ALA^2]
- MEAN DELTA FL ([1]; HIV + PATIENTS): 7.9
- MEAN DELTA FL ([1]; HIV + PATIENTS, listed as LYS--ALA^1): 121.5
- MEAN DELTA FL ([1]; NORMALS): 7.6
- MEAN DELTA FL ([1]; NORMALS, listed as LYS--ALA^1): 112.6

SMILES: O[C@H](CS)[C@@H](O)CS [dithioerythritol (DTE), dithioerythritol]
- effect on sensitivity of the leaving group for the enzyme ([2]; Ala-Gly and Leu-Gly substrates): does not change the sensitivity
- effect on sensitivity of substituted rhodamine 110 substrates ([2]; Pro, Gly, Gln-Ser, Val-Lys-Val-Lys, Ala-Ala, Ala-Ala-Ala-Ala substrates): decreases the sensitivity

SMILES: [Cl-].[Na+] [sodium chloride]
- inhibitory effect on dipeptide reagent [3]: slightly inhibitory effect
